Consider ten compounds from publication PMC11676883, “Coumarins and Hesperetin Inhibit Human Respiratory Syncytial Virus Infection” (International Journal of Molecular Sciences, 2024).

Where “and” joins values, the source holds several entries; their conditions need not be identical. Equal entries are not always repeated. Entries after “also recorded” stand apart in the source; their conditions may differ. Where two headings read alike, the source gives them in different places.

The subject of data set [1] is A549 cells. Particulars: human, 48 h.
Data set [2] relates to RSV-luc (rA2-Rluc). As to conditions: A549 cells; for inhibition of RSV-luc (result in words): not encapsulated, luciferase RLU; for Selectivity Index (SI): from CC50 and IC50.
Data set [3] is described as follows: MTT cytotoxicity assay on A549 cells. Particulars: human. Background: Formazan colour is commonly taken as a measure of viable cells.
The subject of data set [4] is RSV-luc (rA2-Rluc). Nature of the data set: Inhibition assay of β-cyclodextrin-encapsulated compounds on differentiated HBE cultures inoculated with RSV-luc. Particulars: for inhibition compared with the PC (result in words) / mean difference vs positive control: encapsulated; for decrease in RSV infection: encapsulated with β-cyclodextrin, 48 h; for decrease in RSV infection / mean difference vs positive control: RSV-luc.

In data set [5] the test system is RSV-luc (rA2-Rluc). Put plainly: microbe, parasite or virus in culture. As to conditions: human respiratory syncytial virus, A549, read-out: IC50 (concentration inhibiting 50% viral replication).
Data set [6] relates to rgRSV (recombinant green fluorescent protein-expressing RSV, strain A2). Put plainly: Inhibition test on rgRSV-infected HEp-2 cells (GFP foci). As to conditions: 24-72 h, coumarin, esculin, umbelliferone 300 µM, esculetin 150 µM, 4-methyl 150 µM.
Data set [7] has as its system A549 cells. Put plainly: MTT cytotoxicity assay on A549 cells. As to conditions: A549 cells.
A further data set deals with influenza virus. On the set-up: method as in PMID 20092255. Particulars: plaque reduction assay, cited from earlier work. In general terms: In a plaque reduction assay, fewer plaques than in the control indicate reduced infectivity or spread.
Setting [8] is: MTT, 24 h, modified umbelliferones.

Take `COc1ccc(C2CC(=O)c3c(O)cc(O)cc3O2)cc1O` (stereo not drawn) [Hesperetin, 3′,5,7-Trihydroxy-4′-methoxyflavanone]: the “concentration at which the cells were 80% viable” value with A549 cells [1] was determined as 300 µM. In the data set with RSV-luc (rA2-Rluc) [2] (RSV-luc), the “viral inhibition at 24 h” value was found to be 57% and the “viral inhibition at 48 h” value is given as “not maintained”. In the data set on RSV-luc (rA2-Rluc) [2], the “inhibition of RSV-luc (result in words)” value is “reduced luciferase gene expression” and the “Selectivity Index (SI)” value stood at 7.39. In data set [3], this compound returned a CC50 of 2670 µM. Besides, in the data set with RSV-luc (rA2-Rluc) [4], the “inhibition compared with the PC (result in words)” value (“inhibition compared with the PC” for short) was “no significant inhibition”; the “decrease in RSV infection” value was ~7% and 7.5%. Moreover, the IC50 in the data set with RSV-luc (rA2-Rluc) [5] worked out at 360 µM.
Turning to `O=c1ccc2ccc(O)cc2o1` [Umbelliferone, 7-Hydroxycoumarin], the “inhibition of rgRSV (result in words)” value in data set [6] is “did not”. In the data set on RSV-luc (rA2-Rluc) [2], the “inhibition of RSV-luc (result in words)” value was “did not show inhibition” and the “Selectivity Index (SI)” value was 0.46. Also, the CC50 in data set [3] stood at 2400 µM. Also, in the data set on A549 cells [7] (MTT, 48 h), the “concentration at which the cells were 80% viable” value came to 300 µM. Further, the “inhibition compared with the PC” value in the data set on RSV-luc (rA2-Rluc) [4] is recorded as “no significant inhibition”. Further, the IC50 with RSV-luc (rA2-Rluc) [5] is 5140 µM.
As for `CC(=O)Oc1ccc2ccc(=O)oc2c1` [acetylated umbelliferone, 7-Acetoxycoumarin], in the data set with A549 cells [7] (setting [8]), the “concentration that resulted in >80% viable cells” value was found to be 20 µM and the “cytotoxicity compared (result in words)” value is recorded as “higher cytotoxicity than prenylated umbelliferone”.
`O=c1ccc2cc(O[C@@H]3O[C@H](CO)[C@@H](O)[C@H](O)[C@H]3O)c(O)cc2o1` [Esculin, 6,7-Dihydroxycoumarin-6-glucoside]: in data set [6], the “inhibition of rgRSV (result in words)” value was “did not”. Besides, in the data set on RSV-luc (rA2-Rluc) [2], the “inhibition of RSV-luc (result in words)” value is reported as “did not show inhibition” and the “Selectivity Index (SI)” value was 1.21. In addition, in data set [3], the CC50 turned out to be 1930 µM. In the data set with A549 cells [7] (MTT, 48 h), the “concentration at which the cells were 80% viable” value stood at 300 µM. Moreover, in the data set with RSV-luc (rA2-Rluc) [4], the “inhibition compared with the PC” value is on record as “no significant inhibition”. In addition, the IC50 in the data set on RSV-luc (rA2-Rluc) [5] came out at 1590 µM.
As to `O=c1ccc2ccc3occc3c2o1` [angelicin], in the data set on influenza virus (20 nM), the “reduction of influenza virus infection” value is on record as 50%. Moreover, the “reduction of influenza virus infection (result in words)” value in the data set on influenza virus (100 nM) is listed as “completely”.
As to `O=c1ccc2cc(O)c(O)cc2o1` [Esculetin, 6,7-Dihydroxycoumarin], the “concentration at which the cells were 80% viable” value with A549 cells [1] is 125 µM. Besides, in data set [6], the “inhibition of rgRSV (result in words)” value is recorded as “inhibited rgRSV effectively”. Further, in the data set with RSV-luc (rA2-Rluc) [2] (RSV-luc), the “viral inhibition at 24 h” value is “approximately 50%” and the “viral inhibition at 48 h” value was determined as 70%. In addition, in the data set with RSV-luc (rA2-Rluc) [2], the “inhibition of RSV-luc (result in words)” value is “reduced luciferase gene expression” and the “Selectivity Index (SI)” value turned out to be 7.56. For the same compound, the CC50 in data set [3] came out at 1410 µM. In the data set on RSV-luc (rA2-Rluc) [4], the “decrease in RSV infection” value is approximately 15% and the “mean difference vs positive control” value was 12,600,000 RLU. In addition, the IC50 in the data set on RSV-luc (rA2-Rluc) [5] came out at 180 µM.
In the data set with A549 cells [7] (Staurosporine 1 mM, 48 h), `CN[C@@H]1C[C@H]2O[C@@](C)([C@@H]1OC)n1c3ccccc3c3c4c(c5c6ccccc6n2c5c31)C(=O)NC4` [Staurosporine, reference compound] had a cells unavailable of 50%.
As to `OC[C@H]1O[C@@H]2O[C@H]3[C@H](O)[C@@H](O)[C@@H](O[C@H]4[C@H](O)[C@@H](O)[C@@H](O[C@H]5[C@H](O)[C@@H](O)[C@@H](O[C@H]6[C@H](O)[C@@H](O)[C@@H](O[C@H]7[C@H](O)[C@@H](O)[C@@H](O[C@H]8[C@H](O)[C@@H](O)[C@@H](O[C@H]1[C@H](O)[C@H]2O)O[C@@H]8CO)O[C@@H]7CO)O[C@@H]6CO)O[C@@H]5CO)O[C@@H]4CO)O[C@@H]3CO` [β-cyclodextrin], the “decrease of the available cells” value with A549 cells [1] is “about 5%”.
For the compound “5,7-Dihydroxycoumarin-4-methylcoumarin [4-methyl esculetin]”, in data set [6], the “inhibition of rgRSV (result in words)” value is listed as “inhibited rgRSV effectively”. In the data set on RSV-luc (rA2-Rluc) [2] (RSV-luc), the “viral inhibition at 24 h” value is given as “about 40%” and the “viral inhibition at 48 h” value is “inhibition doubling”. In addition, the “inhibition of RSV-luc (result in words)” value in the data set on RSV-luc (rA2-Rluc) [2] is listed as “reduced luciferase gene expression”. The IC50 with RSV-luc (rA2-Rluc) [2] (read-out: IC50 (concentration inhibiting 50% viral replication), RSV-luc) worked out at 70 µM. The “concentration at which the cells were 80% viable” value with A549 cells [7] (MTT, 48 h) was 75 µM. The CC50 with A549 cells [7] (read-out: CC50 (concentration causing 50% cytotoxicity), MTT, extrapolated from CC90 and CC100) is 1040 µM. For the same compound, the “inhibition compared with the PC” value with RSV-luc (rA2-Rluc) [4] is listed as “no significant inhibition”.
For `O=c1ccc2ccccc2o1` [Coumarin, 1,2 Benzopyrone], the “concentration at which the cells were 80% viable” value in the data set on A549 cells [1] was found to be 300 µM. Moreover, the “inhibition of rgRSV (result in words)” value in data set [6] was “did not”. Also, in the data set with RSV-luc (rA2-Rluc) [2], the “inhibition of RSV-luc (result in words)” value is on record as “did not show inhibition; also recorded: no reduction in infection” and the “Selectivity Index (SI)” value amounted to 2.16. The same compound had a CC50 in data set [3] of 3560 µM. Also, the “mean difference vs positive control” value in the data set on RSV-luc (rA2-Rluc) [4] was 19,333,333 RLU. In addition, the IC50 in the data set with RSV-luc (rA2-Rluc) [5] turned out to be 1650 µM.
